Like-named read-outs stand apart in the source and are kept apart here.
Tests used:
[1] = system: HCT116p53KO, DLD-1 and SW480 cell lines; assay: cells; conditions: Homo sapiens, 72 h, read-out: cell mortality
Description: The tumor cell line initially used was HCT116p53KO (which differs from the wild type (wt) HCT116 due to the lack of gene p53), related to the colon tumor, while further detailed studies of specific genes were carried out on other drug-resistant tumor cell lines of the colon, such as DLD-1 and SW480, as well as on tumor cell lines of the lung and ovary. In particular, all cell lines that were the object of the analysis, were related to tumors of epithelial type.

HCT116p53KO cells [2] = assay: Calcein cell viability assay, ibrutinib with or without 5FU; format: cell-based, human; conditions: 72 hr; for percentage of live HCT116p53KO cells (100% = living cells at day 0): without ibrutinib 177.5%
Description: (§1) 100% represent the percentage of living cells at day 0, before starting the treatment.
(§2) Viability was evaluated after 72 hr of incubation by calcein assay. 100% represent the percentage of living cells at day 0, before starting treatment with the drugs. […] At the end of the treatment, cell viability was evaluated by calcein assay. 100% represent the percentage of living cells at day 0, before starting treatment with the drugs.

HCT116 cells [3] = conditions: 200 μM 5FU, 72 hr
Description: as §1, §2

[4] = system: HCT116 overexpressing p65BTK (HCT116-p65BTK); conditions: 200 μM 5FU, 72 hr
Description: as §2

[5] = system: tumor cells of the colon-rectum in advanced phase; conditions: therapy based on 5FU; cited from earlier work
HCT116 cells [6] = conditions: 72 hr
HCT116p53KO cells [7] = conditions: 200 μM 5FU, 20 μM ibrutinib, singly or combined, 72 hr
wt HCT116 cells = assay: cells; conditions: Homo sapiens, HCT-116, 72 h, read-out: cell mortality
HCT116p53KO xenografts = assay: Subcutaneous xenograft, drug-resistant tumors; conditions: for average volume of the tumor masses: after 28 days, 5FU 60 mg/kg i.p. twice a week, alone or combined, control ≈955
HCT116 xenografts = assay: Subcutaneous xenograft, drug-sensitive tumors; conditions: for increase of the tumor doubling time / reduction in the tumor volume: 5FU versus untreated or ibrutinib-treated group p<0.05; for average volume of the tumor masses: after 28 days, alone or combined, control ≈435
SW480 colon cancer cells = conditions: 72 hr
Description: FIG. 26a: SW480; FIG. 26b: HT-29.
as §2
100% represent the percentage of living cells at day 0, before starting treatment with the drugs.

HT-29 colon cancer cells = conditions: with 200 μM 5FU, 72 hr
Description: Cells were treated for 72 hrs in absence of any drug or in presence of FU 200 μM; 1 μM AVL-292; 1 μM AVL-292+5FU 200 μM; 5 μM AVL-292; 5 μM AVL-292+5FU 200 μM; 10 μM AVL-292; […]; viability was evaluated at the end of the incubation using the calcein assay. FIG. 26a: SW480; FIG. 26b: HT-29.
In the experiments shown in FIG. 26 SW480 and HT-29 colon carcinoma cell lines were grown in vitro for 72 hr in the presence of different concentrations of AVL-292, a small molecule inhibitor of BTK, (Celgene Corporation, Summit, N.J.) (from 0 to 20 μM) and of 5FU (200 μM)+AVL-292 (from 0 to 20 μM); cell viability was evaluated at the end of the incubation using the calcein assay. 100% represent the percentage of living cells at day 0, before starting treatment with the drugs.

HCT116p53KO cells [8] = assay: Reversion of 5FU resistance by functional blocking of BTK (cell death); format: cell-based, human; conditions: 200 μM 5FU, 72 hr; agents compared with each other
Excerpt: FIG. 8 is a graph illustrating the reversion of the resistance to a chemotherapeutic drug of tumor cell line HCT116p53KO carried out by means of functional blocking of the gene BTK obtained with different methods.
In FIG. 8, the results of the comparison test are reported in a graph of the functional blocking of the BTK gene by means of plasmids (e.g., encoding p68BTK), siRNA or LFM-A13 in samples of HCT116p53KO cells treated with 5FU. […] In detail, FIG. 8 compares the percentages of cell deaths in the presence of 200 μM 5FU (72 hr treatment) upon wt HCT116 cells and HCT116p53KO drug resistant cells with or without (symbol “empty” and “−”) specific depletions of BTK following transient siRNA transfection (symbol “BTKi”), stable retroviral-mediated RNA interference (symbol “shBTK”), and using LFMA13, an inhibitor compound of BTK.

A549 cells (lung tumor) = assay: Cell death with or without BTK inhibition by LFM-A13; format: cell-based, human; conditions: 200 μM 5FU, 50 μM OxPt, or the combination of the two
Excerpt: (§3) The diminution of the resistance to chemotherapeutic drugs following the functional blocking of the gene BTK by means of LFM-A13 was further confirmed by tests conducted in vitro on epithelial tumor cell lines different from those of the colon. In FIG. 11 levels of BTK have been investigated, by means of Western blot, in several different epithelial carcinoma cell lines showing that the kinase is expressed in most of them. In particular, in FIGS. 12a and 12b, graphs were reported of the reversion tests obtained on SKOV cell lines (related to an ovarian tumor) and A549 cell lines (related to a lung tumor).
(§4) In detail, FIG. 12a compares the percentages of cell deaths in the absence (symbol “NT” and “−”) and presence of 200 μM 5FU, 50 μM OxPt, and the combination of the two upon resistant ovarian (SKOV) cells with or without BTK inhibition through the usage of LMFA13. […] FIG. 12b compares the percentages of cell deaths in the absence (symbol “NT” and “−”) and presence of 200 μM 5FU, 50 μM OxPt, and the combination of the two upon resistant lung (A549) cells with or without BTK inhibition through the usage of LMFA13.

[9] = system: SKOV cells (ovarian tumor); assay: as above; format: cell-based, human; conditions: 200 μM 5FU, 50 μM OxPt, or the combination of the two
Excerpt: as §3, §4

HCT116p53KO cells [10] = assay: Caspase 3/7 activation assay; format: cell-based, human; conditions: 5FU-treated cells in the presence of LFM-A13; luminometric assay
Excerpt: FIG. 14 is a graph illustrating the results of […] caspase activation assays after 72 hrs and 96 hrs in HCT116 and HCT116p53KO colon carcinoma cells treated with 5FU, BTK inhibition, or the combination of the two.
The results have shown that BTK levels determine the sensitivity of tumor cells to 5FU and that BTK inhibition reverses drug-resistance. […] The same finding is also supported by the graph reported in FIG. 14, evaluating the level of caspase 3/7 activation upon 5FU treatment in HCT116p53KO resistant cells in the presence or in the absence of BTK inhibitor LFM-A13. High levels of caspase 3/7 activation, measured by means of a luminometric assay as RLU/number of cells, are observed in 5FU-treated HCT116p53KO cells only when BTK is inhibited.

[11] = system: 5FU-resistant, p53-null (HCT116p53KO, SW480 and HT-29) cell lines; assay: Calcein cell viability assay, ibrutinib dose range; format: cell-based, human; conditions: highest concentration (range 0 to 30 μM), 72 hours
Excerpt: as §1

[12] = system: HCT116p53KO, SW480, DLD-1 and HCT116 cell lines; conditions: up to 10 μM, 72 hours
HCT116p53KO cells [13] = assay: Short-term viability under targeted therapy with or without ibrutinib (MTT); format: cell-based, human; conditions: 25 μg/ml bevacizumab, 10 μg/ml cetuximab or 75 μg/ml panitumumab alone, 72 hr
[14] = dasatinib 50 mpk oral gavage once a day 5 days a week
[15] = ibrutinib 25 mpk oral gavage once daily 5 days a week
[16] = 5FU 60 mg/kg ± dasatinib 50 mpk, p<0.05

Compound: O=c1[nH]cc(F)c(=O)[nH]1 [5FU, 5-fluorouracil]
- mortality at 200 µM [1]: < 10%
- effect on viability (HCT116p53KO cells [2]; 5FU 200 μM alone): little effect
- response to the cytotoxic effect of 5FU (HCT116 cells [3]): sensitive
- response to the cytotoxic effect of 5FU [4]: resistant
- effective response (share of the cells) [5]: 10-15%
- cell death (photographs) (HCT116 cells [6]; 10 μM 5FU, 10 μM ibrutinib, singularly or in combination): no cell death
- cell death (photographs) (HCT116 cells [6]; 5FU 200 μM): massive cell death
- cell death (photographs) (HCT116p53KO cells [7]): no cell death
- mortality at 200 µM (wt HCT116 cells): > 95%
- reduction of the tumor volume (significance) (HCT116p53KO xenografts; 5FU 60 mpk, ibrutinib 25 mpk, 5FU+Ibr25 Vs. Ctrl p=0.012, Vs. Ibr25 p=0.039): did not cause a significant reduction
- average volume of the tumor masses (HCT116p53KO xenografts; [14]): ≈ 530 mm^3
- average volume of the tumor masses (HCT116p53KO xenografts; [15]): ≈ 530 mm^3
- increase of the tumor doubling time versus untreated (or dasatinib-treated) group (HCT116 xenografts; [16]): significant
- reduction in the tumor volume versus untreated (or dasatinib-treated) group (HCT116 xenografts; [16]): significant
- increase of the tumor doubling time (HCT116 xenografts; 5FU 60 mpk, ibrutinib 25 mpk): significant
- reduction in the tumor volume (HCT116 xenografts; 5FU 60 mpk, ibrutinib 25 mpk): significant
- increase of the tumor doubling time (HCT116 xenografts; 5FU 60 mpk, ibrutinib 50 mpk): significant
- reduction in the tumor volume (HCT116 xenografts; 5FU 60 mpk, ibrutinib 50 mpk): significant
- average volume of the tumor masses (HCT116 xenografts; 5FU 60 mg/kg, dasatinib 50 mpk): 226 mm^3
- average volume of the tumor masses (HCT116 xenografts; 5FU 60 mpk, ibrutinib 25 mpk): ≈ 226 mm^3
- average volume of the tumor masses (HCT116 xenografts; 5FU 60 mpk, ibrutinib 50 mpk): ≈ 226 mm^3

Compound: C=CC(=O)Nc1cccc(Nc2nc(Nc3ccc(OCCOC)cc3)ncc2F)c1 [AVL-292]
- cell death (SW480 colon cancer cells; 5 μM combined with 200 μM 5FU): 66.8%
- cell death (SW480 colon cancer cells; 10 μM alone): 19.9%
- cell death (SW480 colon cancer cells; 20 μM alone): 65.3%
- AVL-292 concentration from which sensitization to the cytotoxic effect of 5FU starts (HT-29 colon cancer cells): ≥ 20 µM

Compound: C/C(O)=C(\C#N)C(=O)Nc1cc(Br)ccc1Br [LFM-A13, (2Z)-2-cyan-N-(2,5-dibromophenyl)-3-hydroxy-2-butenamide]
- level of reversion to the drug resistance, expressed as percentage fraction of dead cells (HCT116p53KO cells [8]): comparable
- percentage of cell deaths with LFM-A13 compared to without (A549 cells (lung tumor)): high percentage of tumor cell death
- percentage of cell deaths with LFM-A13 compared to without [9]: high percentage of tumor cell death
- caspase 3/7 activation (HCT116p53KO cells [10]): High levels

Compound: Cc1nc(Nc2ncc(C(=O)Nc3c(C)cccc3Cl)s2)cc(N2CCN(CCO)CC2)n1 [dasatinib]
- average volume of the tumor masses (HCT116p53KO xenografts; [14]): ≈ 355 mm^3
- average volume of the tumor masses (HCT116 xenografts; 5FU 60 mg/kg, dasatinib 50 mpk): ≈ 343 mm^3

Compound: C=CC(=O)N1CCC[C@@H](n2nc(-c3ccc(Oc4ccccc4)cc3)c3c(N)ncnc32)C1 [ibrutinib]
- number of cells (100% = living cells at day 0) [11]: below 100%
- percentage of live HCT116p53KO cells (100% = living cells at day 0) (HCT116p53KO cells [2]; 10 μM ibrutinib): 130.2%
- percentage of live HCT116p53KO cells (100% = living cells at day 0) (HCT116p53KO cells [2]; 20 μM ibrutinib): 116.1%
- average volume of the tumor masses (HCT116p53KO xenografts; [15]): ≈ 760 mm^3
- average volume of the tumor masses (HCT116 xenografts; 5FU 60 mpk, ibrutinib 25 mpk): ≈ 347 mm^3
- average volume of the tumor masses (HCT116 xenografts; 5FU 60 mpk, ibrutinib 50 mpk): ≈ 372 mm^3
- cytotoxicity [12]: not cytotoxic

Compound: bevacizumab: monoclonal antibody used in anti-cancer therapy for targeting VEGF
- cell viability (HCT116p53KO cells [13]): does not affect

Compound: panitumumab: monoclonal antibody used in anti-cancer therapy for targeting EGFR
- cell viability (HCT116p53KO cells [13]): does not affect

From patent publication US9820987B2, “Modulator compounds of drug resistance in epithelial tumor cells” (BIONSIL S.R.L. in Liquidazione, priority 2007, dated 2017)
